{"source": "patent US20220105157A1", "about": "“Compositions and Methods for Promoting Angiogenesis in the Eye” (The Regents of the University of California, priority 2019, published 2022)", "key": {"[1]": {"test_system": "bovine aortic endothelial (BAE) cells", "test": "BAE endothelial cell proliferation assay (alamar blue)", "format": "cell-based", "description": "(§1) The bovine endothelial proliferation assays were performed essentially as previously described (63, 64). BCE (1×10^3 cells/well) or BRE (5×10^2 cells/well) cells were seeded in 96-well plates in the culture medium (DMEM-low glucose supplemented with 10% BCS, 2 mM glutamine and antibiotics) plus testing materials with a total volume of 200 μl per well. BAE cells were plated in 96-well plates at a density of 2×10^3 cells in the culture medium (DMEM-low glucose supplemented with 1% BCS and antibiotics) plus testing material with a total volume of 200 μl per well. HRME cells were seeded at a density of 1×10^3 cells/well in gelatin-coated 96-well plates in assay medium (DMEM-low glucose supplemented with 20% FBS and antibiotics) plus testing materials to make a total volume 200 μl per well. For assays involving antibodies or small-molecule inhibitors, inhibitors or vehicle controls were first added and then test materials were added one hour later. After 6 days (unless otherwise specified), cells were incubated with alamar blue for 4 h. Fluorescence was measured at 530 nm excitation wavelength and 590 nm emission wavelength. Each experiment was carried out in duplicate/triplicate and repeated at least three times."}, "[2]": {"test_system": "BAE cells", "test": "Annexin V staining for cell death", "format": "cell-based, bovine", "conditions": "BAE cells treated with LIF (10 ng/ml) for 24 hours", "description": "BAE cells were plated at a density of 2×10^4 cells/well with 1 ml of culture medium (DMEM-low glucose plus 10% BCS) in 12-well plates and then incubated at 37° C. overnight. After removal of culture medium, cells were incubated in 0.5 ml of DMEM-low glucose plus 1% BCS. LIF (10 ng/ml) and vehicle control (0.1% BSA in PBS) were added to the cells. Following LIF treatment for 24 hours, cells were examined for cell death marker Annexin V using Annexin V-Cy5 Apoptosis Staining Detection Kit (Abcam, CAT #ab14150) according to manufacturer's instructions. Briefly, cell culture medium was removed and 0.5 ml of Annexin V binding solution was laid over onto the cells. Cells were incubated at room temperature for 5 min following addition of 5 μl of Annexin V-Cy5. Then, the staining solution was discarded and replaced with 0.5 ml of Annexin V binding solution. Imaging of Annexin V staining were performed using Keyence Microscope BZ-X710 (Keyence Corporation, Osaka, Japan). Four random fields were selected and the percentages of Annexin V-staining area in total cell-covered area as indicatives for cell death were determined using ImageJ software. The experiment was carried out in triplicate and repeated three time."}, "[3]": {"test_system": "mouse retina", "test": "Measurement of vascular leakage in retina (TRITC-dextran)", "format": "in vivo", "conditions": "mice, LIF 10 ng intravitreally", "description": "Recombinant human VEGF (100 ng) or LIF (10 ng) was injected into the vitreous (0.1% BSA PBS solution as vehicle control). TRITC-dextran (50 mg/ml, 100 ul) was then injected into the tail vein. Ten minute later, animals were sacrificed and eyes were enucleated. Retina flat mount was imaged under microscope (65)."}, "[4]": {"test_system": "bovine choroidal endothelial (BCE) cells", "test": "BCE endothelial cell proliferation assay (alamar blue)", "format": "cell-based", "description": "as §1"}, "[5]": {"test_system": "BAE cells", "test": "Gene and protein expression in LIF-treated BAE cells (RNA-seq, qRT-PCR, cathepsin L ELISA)", "format": "cell-based, bovine", "description": "VEGF and LIF levels in LN-229 CM samples were determined by a human VEGF ELISA kit (R&D Systems, CAT #DVE00) and a human LIF ELISA kit (Biolegend, CAT #443507) according to manufacturers' instructions, respectively. Cathepsin L levels in BAE cells were measured using a bovine cathepsin L ELISA kit (MyBioSource, Inc, CAT #MBS2887609) per manufacturer's instructions.\nBCE and BAE cells, after the indicated treatments, were lysed with Trizol reagent (Invitrogen, CAT #15596026) and subjected to RNA extraction following manufacturer's instructions. RNA concentrations were determined with Nanodrop 2000 (ThermoFisher Scientific) and 1 μg of total RNAs were reverse-transcribed to cDNAs using the High-Capacity cDNA Reverse Transcription Kit (Applied Biosystems, CAT #4368814). Equal amounts (generally 10 ng/reaction) of cDNAs were subjected to qRT-PCR analyses using the TaqMan Fast Advanced Master Mix (Applied Biosystems, CAT #4444557) and the ViiA7 Real-time PCR system. Relative mRNA levels of the examined genes were normalized to the internal control RPLP0 (Ribosomal Protein Lateral Stalk Subunit P0), determined by comparing with control sample group, and reported as fold changes. TaqMan gene expression assay probes were used: bovine RPLP0 (Bt03218086_ml), bovine STAT3 (Bt03259865_ml), bovine CTSL1 (Bt03257307_ml and Bt03257309_ml), bovine CTSB (Bt03259161_ml), bovine MYC (Bt03260377_ml), bovine JunB (Bt03246919_s1), bovine CCNA2 (Bt03240503_g1), bovine CCNB1 (Bt03237853_g1), and bovine PIM1 (Bt03212957_ml). The experiment was carried out in triplicate and repeated three times."}, "[6]": {"test_system": "bovine retinal endothelial (BRE) cells", "test": "BRE endothelial cell proliferation assay (alamar blue)", "format": "cell-based", "description": "as §1"}}, "data": [{"substance": "LIF: recombinant human leukemia inhibitory factor, a member of the IL-6 family of cytokines", "values": [{"measurement": "BAE cell growth", "setting": "[1]", "value": "growth inhibition"}, {"measurement": "Annexin V positive cells (cell death marker)", "setting": "[2]", "value": "increased proportion of cells were Annexin V positive"}, {"measurement": "retinal microvascular leakage", "setting": "[3]", "value": "does not induce retinal microvascular leakage"}, {"measurement": "stimulation of BCE cell growth (mitogenic activity)", "setting": "[4]", "value": "stimulated growth of BCE cells"}, {"measurement": "upregulation of IGFBP3", "setting": "[5]; BAE cells incubated with LIF for 6 hours, RNA-seq, confirmed by qRT-PCR", "value": "approximately 8 fold"}, {"measurement": "cyclin A/B expression", "setting": "[5]; BAE cells, LIF 10 ng/ml 24 hours, qRT-PCR", "value": "downregulation"}, {"measurement": "CTSB (cathepsin B) levels", "setting": "[5]; BAE cells, LIF 24 hours", "value": "not CTSB"}, {"measurement": "CTSL (cathepsin L) mRNA and protein levels", "setting": "[5]; BAE cells, LIF 24 hours", "value": "dramatically upregulated"}, {"measurement": "PIM1 expression", "setting": "[5]; BAE cells, LIF treatment", "value": "induction"}, {"measurement": "mitogenic activity on BRE cells", "setting": "[6]", "value": "exerted mitogenic activity"}]}]}
